Measured values taken from patent publication US9242984B2, “Pyrazolyl derivatives as Syk inhibitors” (Merck Sharp & Dohme Corp., priority 2012, dated 2016).
Read-outs that look alike come from different tables or passages of the source.

Molecular target: T1, recombinant human Syk (GST-hSyk fusion protein) (Homo sapiens, UniProt P43405)
T1 construct: purchased Carna Biosciences 08-176
Experiment: Homogeneous Time-Resolved Fluorescence (HTRF) assay for the recombinant human Syk enzyme
Assay type: biochemical
Details: 10-dose titration, 25 μM ATP
In short: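 IC50 came from a four-parameter fit over ten doses, 10 μM to 0.508 nM, with HTRF read-out (Eu-anti-pTyr antibody, SA-APC, EDTA stop, 30 min). The enzyme, 5 pM GST-hSyk, met compound for 10 min, then phosphorylated 250 nM biotin-peptide with 25 μM ATP and 5 mM Mg for 45 min at room temperature, pH 7.5.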

[1] = IC50 class, read-out: rhSYK Activity

Cc1cc(Nc2nccc(C(F)(F)F)n2)cc(-c2cnn(CC3COCCO3)c2)c1 (stereo not drawn) [Example 3.9, N-{3-[1-(1,4-dioxan-2-ylmethyl)-1H-pyrazol-4-yl]-5-methyl-phenyl}-4-(trifluoro-methyl)pyrimidin-2-amine]
IC50 [1]: ≤ 0.1 µM

Cc1cc(Nc2ncc(F)c(C(F)F)n2)cc(-c2cnn(CC3(O)CCC3)c2)c1 [Example 29.6, 1-{[4-(3-{[4-(difluoromethyl)-5-fluoropyrimidin-2-yl]amino}-5-methylphenyl)-1H-pyrazol-1-yl]methyl}cyclobutanol]
IC50 [1]: ≤ 0.1 µM

Cc1cc(Nc2nccc(C(F)F)n2)cc(-c2cnn(CC(O)C(C)(C)C)c2)c1 (stereo not drawn) [Example 5.30, 1-[4-(3-{[4-(difluoromethyl)pyrimidin-2-yl]amino}-5-methylphenyl)-1H-pyrazol-1-yl]-3,3-dimethylbutan-2-ol]
IC50 [1]: ≤ 0.1 µM

Cc1cc(Nc2nccc(C(F)(F)F)n2)cc(-c2cnn(C3CCNC(=O)CC3)c2)c1 (single isomer, unassigned) [14.1 (enantiomer 1)]
IC50 (read-out: rhSYK IC50): 0.028 µM

COc1ccc2c(-c3cc(C)cc(Nc4nccc(C(F)(F)F)n4)c3)cnn2n1 [Example 2.36, N-[3-(6-methoxypyrazolo[1,5-b]pyridazin-3-yl)-5-methylphenyl]-4-(trifluoromethyl)pyrimidin-2-amine]
IC50 [1]: ≤ 0.1 µM

Cc1cc(Nc2nccc(C(F)F)n2)cc(-c2cnn(CC(O)(CO)C(F)(F)F)c2)c1 (single isomer, unassigned) [Example 32.1, (S or R)-2-((4-(3-((4-(difluoromethyl)pyrimidin-2-yl)amino)-5-methylphenyl)-1H-pyrazol-1-yl)methyl)-3,3,3-trifluoropropane-1,2-diol]
IC50 (read-out: rhSYK IC50): 0.0016 µM | IC50 [1]: ≤ 0.1 µM

Cc1cc(Nc2nccc(C(F)(F)F)n2)cc(-c2cnn(CC3OC(=O)NC3C)c2)c1 (single isomer, unassigned) [Example 23.2, 4-methyl-5-{[4-(3-methyl-5-{[4-(trifluoromethyl)pyrimidin-2-yl]amino}phenyl)-1H-pyrazol-1-yl]methyl}-1,3-oxazolidin-2-one]
IC50 [1]: ≤ 0.1 µM

Cc1cc(Nc2nccc(C(F)(F)F)n2)cc(-c2cnn(CC(C)(O)CC#N)c2)c1 (stereo not drawn) [Example 20.3, 3-hydroxy-3-methyl-4-[4-(3-methyl-5-{[4-(trifluoromethyl)pyrimidin-2-yl]amino}phenyl)-1H-pyrazol-1-yl]butanenitrile]
IC50 [1]: ≤ 0.1 µM

Cc1cc(Nc2nccc(C(F)F)n2)cc(-c2cnn(C3CCCC(C)(O)C3(C)O)c2)c1 (stereo not drawn) [Example 22.11, 3-[4-(3-{[4-(difluoromethyl)pyrimidin-2-yl]amino}-5-methylphenyl)-1H-pyrazol-1-yl]-1,2-dimethylcyclohexane-1,2-diol]
IC50 (read-out: rhSYK IC50): 0.0025 µM | IC50 [1]: ≤ 0.1 µM

CC(=O)Cn1cc(-c2cc(C)cc(Nc3nccc(C(F)(F)F)n3)c2)cn1 [Example 3.22, 1-[4-(3-methyl-5-{[4-(trifluoromethyl)pyrimidin-2-yl]amino}phenyl)-1H-pyrazol-1-yl]propan-2-one]
IC50 [1]: ≤ 0.1 µM

Cc1cc(Nc2nccc(C(F)F)n2)cc(-c2cnn(C(C)C3CNC(=O)C3)c2)c1 (stereo not drawn) [Example 2.70, 4-{1-[4-(3-{[4-(difluoromethyl)pyrimidin-2-yl]amino}-5-methylphenyl)-1H-pyrazol-1-yl]ethyl}pyrrolidin-2-one]
IC50 [1]: ≤ 0.1 µM

Cc1cc(Nc2nccc(C(F)F)n2)cc(-c2cnn(C(C)C(C)(O)CO)c2)c1 (single isomer, unassigned) [Example 22.1, 3-(4-(3-((4-(Difluoromethyl)pyrimidin-2-yl)amino)-5-methylphenyl)-1H-pyrazol-1-yl)-2-methylbutane-1,2-diol]
IC50 (read-out: rhSYK IC50): 0.0013 µM | IC50 [1]: ≤ 0.1 µM

Cc1cc(Nc2nccc(C(F)(F)F)n2)cc(-c2cnn(CC3COCCC3O)c2)c1 (stereo not drawn) [Example 12.12, 3-{[4-(3-methyl-5-{[4-(trifluoromethyl)pyrimi-din-2-yl]amino}phenyl)-1H-pyrazol-1-yl]methyl}-tetrahydro-2H-pyran-4-ol]
IC50 [1]: ≤ 0.1 µM

Cc1cc(Nc2nccc(C(F)(F)F)n2)cc(-c2cnn(C(C)C3(O)CCOCC3)c2)c1 (stereo not drawn) [Example 12.14, 4-{1-[4-(3-methyl-5-{[4-(trifluoromethyl)pyrimidin-2-yl]amino}phenyl)-1H-pyrazol-1-yl]ethyl}-tetrahydro-2H-pyran-4-ol]
IC50 [1]: ≤ 0.1 µM

Cc1cc(Nc2ncc(F)c(C)n2)cc(-c2cnn(CC3CNC(=O)O3)c2)c1 (stereo not drawn) [Example 2.22, 5-[(4-{3-[(5-fluoro-4-methylpyrimidin-2-yl)amino]-5-methylphenyl}-1H-pyrazol-1-yl)methyl]-1,3-oxazolidin-2-one]
IC50 [1]: ≤ 0.1 µM

Cc1cc(Nc2nccc(C(F)F)n2)cc(-c2cnn(CCNC(=O)OCCF)c2)c1 [Example 27.18, 2-fluoroethyl {2-[4-(3-{[4-(difluoromethyl)pyrimidin-2-yl]amino}-5-methylphenyl)-1H-pyrazol-1-yl]ethyl}carbamate]
IC50 [1]: ≤ 0.1 µM

Cc1cc(Nc2nccc(C(F)F)n2)cc(-c2cnn(CC3(C)CNC(=O)C3)c2)c1 (stereo not drawn) [Example 2.77, 4-{[4-(3-{[4-(difluoromethyl)pyrimidin-2-yl]amino}-5-methylphenyl)-1H-pyrazol-1-yl]methyl}-4-methylpyrrolidin-2-one]
IC50 [1]: ≤ 0.1 µM

Cc1cc(Nc2nccc(C(F)F)n2)cc(-c2cnn(C3CC(C)(C)CC(C)(O)C3O)c2)c1 (stereo not drawn) [Example 22.10]
IC50 (read-out: rhSYK IC50): 0.0067 µM | IC50 [1]: ≤ 0.1 µM

CC(=O)Nc1cc(Nc2nccc(C(F)(F)F)n2)cc(-c2cnn(C3CCC(C(=O)O)CC3)c2)c1 (stereo not drawn) [Example 1.53, 4-{4-[3-(acetylamino)-5-{[4-(trifluoromethyl)pyrimidin-2-yl]amino}phenyl]-1H-pyrazol-1-yl}cyclohexanecarboxylic acid]
IC50 [1]: ≤ 0.1 µM

COc1ccnc(Nc2cc(C)cc(-c3cnn(CCC(=O)O)c3)c2)n1 [Example 2.1, 3-(4-(3-((4-methoxypyrimidin-2-yl)amino)-5-methylphenyl)-1H-pyrazol-1-yl)propanoic acid]
IC50 (read-out: rhSYK IC50): 0.0221 µM | IC50 [1]: ≤ 0.1 µM

COc1ccnc(Nc2cc(C)cc(-c3cnn(C[C@H](O)C(N)=O)c3)c2)n1 [Example 6.4, (2S)-2-hydroxy-3-(4-{3-[(4-methoxypyrimidin-2-yl)amino]-5-methylphenyl}-1H-pyrazol-1-yl)propanamide]
IC50 [1]: ≤ 0.1 µM

Cc1cc(Nc2nccc(C)n2)cc(-c2cnn(CC(C)(O)CO)c2)c1 (single isomer, unassigned) [Example 25.2, 2-methyl-3-(4-{3-methyl-5-[(4-methylpyrimidin-2-yl)amino]phenyl}-1H-pyrazol-1-yl)propane-1,2-diol]
IC50 [1]: ≤ 0.1 µM

Cc1cc(Nc2nccc(C(F)(F)F)n2)cc(-c2cnn(CC(C)(C)O)c2)c1 [Example 5.12, 2-methyl-1-[4-(3-methyl-5-{[4-(trifluorometh-yl)pyrimidin-2-yl]amino}-phenyl)-1H-pyrazol-1-yl]propan-2-ol]
IC50 [1]: ≤ 0.1 µM

Cc1cc(Nc2nccc(C(F)(F)F)n2)cc(-c2cnn(C3CCC(C(=O)O)c4ccccc43)c2)c1 (stereo not drawn) [Example 3.51, 4-[4-(3-methyl-5-{[4-(trifluoromethyl)pyrimidin-2-yl]amino}phenyl)-1H-pyrazol-1-yl]-1,2,3,4-tetrahydronaphthalene-1-carboxylic acid]
IC50 [1]: ≤ 0.1 µM

Cc1cc(Nc2nccc(OC(C)C)n2)cc(-c2cnn(C[C@@H](O)C(=O)O)c2)c1 [Example 11.14, (2R)-2-hydroxy-3-[4-(3-methyl-5-{[4-(1-methylethoxy)-pyrimidin-2-yl]amino}-phenyl)-1H-pyrazol-1-yl]propanoic acid]
IC50 [1]: ≤ 0.1 µM

Cc1cc(Nc2nccc(C(F)F)n2)cc(-c2cnn(CC3CCNC(=O)O3)c2)c1 (stereo not drawn) [Example 2.81, 6-{[4-(3-{[4-(difluoromethyl)pyrimidin-2-yl]amino}-5-methylphenyl)-1H-pyrazol-1-yl]methyl}-1,3-oxazinan-2-one]
IC50 [1]: ≤ 0.1 µM

Cc1cc(Nc2nccc(C(F)(F)F)n2)cc(-c2cnn(CC3(O)CCN(C(N)=O)CC3)c2)c1 [Example 17, 4-hydroxy-4-((4-(3-methyl-5-((4-(trifluoromethyl)pyrimidin-2-yl)amino)phenyl)-1H-pyrazol-1-yl)methyl)piperidine-1-carboxamide]
IC50 (read-out: rhSYK IC50): 0.0139 µM | IC50 [1]: ≤ 0.1 µM

Cc1cc(Nc2nccc(C(F)(F)F)n2)cc(-c2cnn([C@@H](C)[C@@](C)(O)CO)c2)c1 (single isomer, unassigned) [Example 21.8, 2-methyl-3-[4-(3-methyl-5-{[4-(trifluoromethyl)pyrimidin-2-yl]amino}phenyl)-1H-pyrazol-1-yl]butane-1,2-diol]
IC50 [1]: ≤ 0.1 µM

CCOC(=O)CCn1cc(-c2cc(C)cc(Nc3nccc(OC)n3)c2)cn1 [Example 2.3, ethyl 3-(4-{3-[(4-methoxypyrimidin-2-yl)amino]-5-methylphenyl}-1H-pyrazol-1-yl)-propanoate]
IC50 [1]: ≤ 0.1 µM

Cc1cc(Nc2nccc(C(F)F)n2)cc(-c2cnn(C(C[C@H](C)O)[C@@H](C)O)c2)c1 (stereo in doubt) [Example 2.53, 3-[4-(3-{[4-(difluoromethyl)pyrimidin-2-yl]amino}-5-methylphenyl)-1H-pyrazol-1-yl]hexane-2,5-diol]
IC50 [1]: ≤ 0.1 µM

Cc1cc(Nc2nccc(C(C)(F)F)n2)cc(-c2cnn(CC3CNC(=O)O3)c2)c1 (stereo not drawn) [Example 3.125, 5-{[4-(3-{[4-(1,1-difluoroethyl)pyrimidin-2-yl]amino}-5-methylphenyl)-1H-pyrazol-1-yl]methyl}-1,3-oxazolidin-2-one]
IC50 [1]: ≤ 0.1 µM

Cc1cc(Nc2nccc(C(F)(F)F)n2)cc(-c2cnn(C[C@@H](O)C(=O)O)c2)c1 [Example 5.16, (2R)-2-hydroxy-3-[4-(3-methyl-5-{[4-(trifluoromethyl)-pyrimidin-2-yl]amino}phenyl)-1H-pyrazol-1-yl]propanoic acid]
IC50 [1]: ≤ 0.1 µM

C[C@@](O)(CO)Cn1cc(-c2cccc(Nc3nccc(C(F)F)n3)c2)cn1 [Example 2.92, (2S)-3-[4-(3-{[4-(difluoromethyl)pyrimidin-2-yl]amino}phenyl)-1H-pyrazol-1-yl]-2-methylpropane-1,2-diol]
IC50 [1]: ≤ 0.1 µM
